Two molecules from patent US6592911B2, “(−)-Olivil as antioxidant which is obtained from a new natural source namely Stereospermum personatum” (Council of Scientific and Industrial Research, priority 2001, dated 2003) can be followed below.

A short description of the assay: In vitro free radical (DPPH) scavenging antioxidant potency. The format is biochemical. Particulars: for 50% Radical scavenging concentration of compounds, Concentration: DPPH radical 500 μM in ethanol, tris-HCl buffer pH 7.4, 45 minutes in dark, absorbency at 517 nm, triplicate. The protocol: In Vitro Evaluation of Free Radical Scavenging Antioxidant Potency
Antioxidant activity of the compounds was tested for its capacity/potency to scavenge most widely used free radical, 1,1-diphenyl-2-picryl hyrazyl radical (DPPH). […] 200 μl of test compounds were reconstituted to 1 ml in tris-HCl buffer (pH 7.4). Equal volume of 500 μM of DPPH radical dissolved in ethanol was reacted with this. After incubation for 45 minutes in dark, the absorbency at 517 nm was recorded. Percent radical scavenging activity was calculated accordingly. All the readings were taken in triplicate.
(Loss of DPPH colour is used to gauge radical scavenging.)

The structures appear in SMILES notation.

As to `Cc1c(C)c2c(c(C)c1O)CCC(C)(CCCC(C)CCCC(C)CCCC(C)C)O2` (stereo not drawn) [DL α-Tocopherol, reference compound], the “50% Radical scavenging concentration of compounds, Concentration” value came to 47.80 µg/mL.

Take `COc1cc(C[C@]2(O)CO[C@@H](c3ccc(O)c(OC)c3)[C@@H]2CO)ccc1O` [(−)-Olivil]: the “50% Radical scavenging concentration of compounds, Concentration” value turned out to be 22.24 µg/mL. For the same molecule, the “antioxidant activity compared with reference drugs Probucol and alpha-tocopherol” value (comparison in words) is recorded as “better than the above mentioned reference drugs”.
